Data as given in ChEMBL document CHEMBL5126517, “Structure-Activity Relationship in the Leucettine Family of Kinase Inhibitors” (J Med Chem, 2022).

What was measured:
Cannabinoid receptor 1 = Cannabinoid receptor 1 (Homo sapiens, UniProt P21554); assay: Antagonist activity at CP-55940-activated CB1 receptor (unknown origin) at 10 uM by beta-arrestin assay relative to control; assay type: functional; design: scale not given: the % may be the effect or the level left
[1] = biological target: Dual specificity protein kinase CLK4 (Mus musculus, UniProt O35493); assay: Inhibition of GST-fused mouse recombinant CLK4 expressed in Escherichia coli using GRSRSRSRSRSR peptide as substrate incubated for 30 mins in presence of ATP by scintillation counting method
[2] = biological target: Serine/threonine-protein kinase pim-1 (Homo sapiens, UniProt P11309); assay: Inhibition of human recombinant Pim1 expressed in Escherichia coli using histone H1 as substrate incubated for 30 mins in presence of ATP by scintillation counting method
[3] = biological target: Dual specificity tyrosine-phosphorylation-regulated kinase 1A (Homo sapiens, UniProt Q13627); assay: Inhibition of GST-fused human recombinant DYRK1A expressed in Escherichia coli using GRSRSRSRSRSR peptide as substrate incubated for 30 mins in presence of ATP by scintillation counting method
Casein kinase 2 = Casein kinase 2 (Homo sapiens, UniProt P67870+P68400+P19784+Q8NEV1); assay: Inhibition of human recombinant CK2 using RRRDDDSDDD peptide as substrate incubated for 30 mins in presence of ATP by scintillation counting method; assay type: protein assay
[4] = biological target: T1, Dual specificity tyrosine-phosphorylation-regulated kinase 3 (Homo sapiens, UniProt O43781); assay: Inhibition of GST-fused human recombinant DYRK3 expressed in Escherichia coli using GRSRSRSRSRSR peptide as substrate incubated for 30 mins in presence of ATP by scintillation counting method
T1 sequence (O43781 whole entry): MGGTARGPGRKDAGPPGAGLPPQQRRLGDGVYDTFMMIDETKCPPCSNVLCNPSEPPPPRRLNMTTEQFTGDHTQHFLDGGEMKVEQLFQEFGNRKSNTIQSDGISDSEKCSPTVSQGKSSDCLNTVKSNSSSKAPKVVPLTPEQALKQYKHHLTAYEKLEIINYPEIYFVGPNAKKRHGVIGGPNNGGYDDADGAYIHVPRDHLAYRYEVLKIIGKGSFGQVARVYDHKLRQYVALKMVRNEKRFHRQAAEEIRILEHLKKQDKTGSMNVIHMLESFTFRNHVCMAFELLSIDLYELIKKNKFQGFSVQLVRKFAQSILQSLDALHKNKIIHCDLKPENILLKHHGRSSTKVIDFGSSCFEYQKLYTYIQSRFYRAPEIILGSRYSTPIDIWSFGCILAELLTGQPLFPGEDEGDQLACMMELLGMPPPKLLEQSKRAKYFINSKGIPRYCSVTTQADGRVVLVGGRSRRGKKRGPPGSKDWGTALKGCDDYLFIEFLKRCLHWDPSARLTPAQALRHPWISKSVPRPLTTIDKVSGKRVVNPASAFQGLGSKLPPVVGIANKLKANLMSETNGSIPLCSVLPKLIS

[5] = biological target: Glycogen synthase kinase-3 (Sus scrofa, UniProt B2LUN4+I6LNT8); assay: Inhibition of porcine brain GSK-3alpha/beta using YRRAAVPPSPSLSRHSSPHQpSEDEEE as substrate incubated for 30 mins in presence of ATP by scintillation counting method; assay type: tissue-based
[6] = biological target: Dual specificity protein kinase CLK1 (Mus musculus, UniProt P22518); assay: Inhibition of GST-fused mouse recombinant CLK1 expressed in Escherichia coli using GRSRSRSRSRSR peptide as substrate incubated for 30 mins in presence of ATP by scintillation counting method
U2OS = assay: Induction of PI3K/mTor-dependent autophagy in human U2OS cells assessed as number of LC3 foci per cell at 10 uM measured after 4 hrs; assay type: cell-based; conditions: filed as activator
HT-22 [7] = assay: Modulation of CLK1 pre-mRNA splicing in mouse HT-22 cells assessed as inclusion of CLK1 exon 4 by measuring change in threshold cycle at 10 uM measured after 4 hrs by real time PCR analysis; assay type: cell-based; conditions: filed as modulator
[8] = biological target: Dual specificity tyrosine-phosphorylation-regulated kinase 1B (Homo sapiens, UniProt Q9Y463)
[9] = Neurotoxicity against mouse HT-22 cells assessed as cell survival at 20 uM treated for 24 hrs by MTS assay; assay type: toxicity, cell-based; conditions: ht-22, 24 h
[10] = biological target: T2, Dual specificity tyrosine-phosphorylation-regulated kinase 2 (Homo sapiens, UniProt Q92630); assay: Inhibition of GST-fused human recombinant DYRK2 expressed in Escherichia coli using GRSRSRSRSRSR peptide as substrate incubated for 30 mins in presence of ATP by scintillation counting method
T2 sequence (Q92630 whole entry): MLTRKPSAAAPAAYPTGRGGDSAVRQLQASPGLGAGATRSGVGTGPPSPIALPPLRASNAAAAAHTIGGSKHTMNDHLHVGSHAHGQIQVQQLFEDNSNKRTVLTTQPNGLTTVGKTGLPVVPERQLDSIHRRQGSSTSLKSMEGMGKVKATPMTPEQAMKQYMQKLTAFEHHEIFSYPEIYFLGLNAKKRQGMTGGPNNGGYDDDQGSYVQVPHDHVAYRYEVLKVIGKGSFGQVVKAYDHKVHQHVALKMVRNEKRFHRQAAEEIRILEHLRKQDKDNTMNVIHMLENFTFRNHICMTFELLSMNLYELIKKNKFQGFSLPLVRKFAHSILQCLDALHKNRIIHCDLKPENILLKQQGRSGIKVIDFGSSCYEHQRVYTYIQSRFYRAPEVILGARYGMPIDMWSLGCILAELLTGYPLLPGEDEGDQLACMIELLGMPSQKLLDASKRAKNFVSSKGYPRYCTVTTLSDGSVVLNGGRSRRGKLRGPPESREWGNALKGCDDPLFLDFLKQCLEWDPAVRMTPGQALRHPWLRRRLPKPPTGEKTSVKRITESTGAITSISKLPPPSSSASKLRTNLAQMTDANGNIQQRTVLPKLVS

[11] = Neurotoxicity against mouse HT-22 cells assessed as cell survival treated for 24 hrs by MTS assay; assay type: toxicity, cell-based
[12] = biological target: Dual specificity protein kinase CLK2 (Mus musculus, UniProt O35491); assay: Inhibition of mouse recombinant GST-fused CLK2 expressed in Escherichia coli using GRSRSRSRSRSR peptide as substrate incubated for 30 mins in presence of ATP by scintillation counting method
[13] = biological target: Dual specificity protein kinase CLK3 (Mus musculus, UniProt O35492); assay: Inhibition of GST-fused mouse recombinant CLK3 expressed in Escherichia coli using GRSRSRSRSRSR peptide as substrate incubated for 30 mins in presence of ATP by scintillation counting method
HT-22 [14] = assay: Neuroprotective activity against glutamate-induced cell death in mouse HT-22 cells treated for 24 hrs by MTS assay; assay type: functional, cell-based; conditions: HT-22, 24 h

Dual specificity protein kinase CLK1, sequence (P22518 whole entry, the tested form may be a part): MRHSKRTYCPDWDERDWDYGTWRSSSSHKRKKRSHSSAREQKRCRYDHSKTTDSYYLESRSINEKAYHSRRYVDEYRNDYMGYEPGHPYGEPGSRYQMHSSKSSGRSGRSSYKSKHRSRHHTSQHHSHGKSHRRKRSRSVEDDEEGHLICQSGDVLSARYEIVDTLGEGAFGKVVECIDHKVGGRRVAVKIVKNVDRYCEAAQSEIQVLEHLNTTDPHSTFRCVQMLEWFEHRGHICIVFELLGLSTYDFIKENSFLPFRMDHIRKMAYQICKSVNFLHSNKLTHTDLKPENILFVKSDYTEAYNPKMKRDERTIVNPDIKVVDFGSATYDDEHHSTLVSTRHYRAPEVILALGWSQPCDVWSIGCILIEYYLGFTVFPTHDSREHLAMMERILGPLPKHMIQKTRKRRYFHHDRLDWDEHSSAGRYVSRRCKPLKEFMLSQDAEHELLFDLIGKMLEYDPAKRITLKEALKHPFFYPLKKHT
Dual specificity protein kinase CLK4, sequence (O35493 whole entry, the tested form may be a part): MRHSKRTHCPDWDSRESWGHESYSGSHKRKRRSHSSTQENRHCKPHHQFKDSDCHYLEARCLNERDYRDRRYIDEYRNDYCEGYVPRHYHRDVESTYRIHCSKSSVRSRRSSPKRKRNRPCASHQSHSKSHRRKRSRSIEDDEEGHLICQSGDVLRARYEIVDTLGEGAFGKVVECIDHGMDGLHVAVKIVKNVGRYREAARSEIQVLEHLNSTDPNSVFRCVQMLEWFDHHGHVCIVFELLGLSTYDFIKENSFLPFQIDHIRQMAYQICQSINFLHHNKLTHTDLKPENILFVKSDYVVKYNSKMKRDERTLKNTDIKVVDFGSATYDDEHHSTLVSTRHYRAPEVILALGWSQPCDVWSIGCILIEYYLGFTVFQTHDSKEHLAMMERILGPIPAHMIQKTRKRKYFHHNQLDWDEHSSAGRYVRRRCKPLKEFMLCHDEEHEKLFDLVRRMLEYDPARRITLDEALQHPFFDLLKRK
Serine/threonine-protein kinase pim-1, sequence (P11309 whole entry, the tested form may be a part): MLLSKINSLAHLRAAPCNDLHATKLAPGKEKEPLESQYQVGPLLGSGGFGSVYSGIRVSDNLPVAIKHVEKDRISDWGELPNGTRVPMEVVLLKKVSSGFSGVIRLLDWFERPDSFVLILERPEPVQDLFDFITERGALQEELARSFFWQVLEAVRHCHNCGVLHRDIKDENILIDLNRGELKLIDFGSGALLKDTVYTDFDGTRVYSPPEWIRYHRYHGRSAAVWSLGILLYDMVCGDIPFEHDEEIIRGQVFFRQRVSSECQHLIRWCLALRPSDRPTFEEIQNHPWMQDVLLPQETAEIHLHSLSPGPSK
Dual specificity protein kinase CLK2, sequence (O35491 whole entry, the tested form may be a part): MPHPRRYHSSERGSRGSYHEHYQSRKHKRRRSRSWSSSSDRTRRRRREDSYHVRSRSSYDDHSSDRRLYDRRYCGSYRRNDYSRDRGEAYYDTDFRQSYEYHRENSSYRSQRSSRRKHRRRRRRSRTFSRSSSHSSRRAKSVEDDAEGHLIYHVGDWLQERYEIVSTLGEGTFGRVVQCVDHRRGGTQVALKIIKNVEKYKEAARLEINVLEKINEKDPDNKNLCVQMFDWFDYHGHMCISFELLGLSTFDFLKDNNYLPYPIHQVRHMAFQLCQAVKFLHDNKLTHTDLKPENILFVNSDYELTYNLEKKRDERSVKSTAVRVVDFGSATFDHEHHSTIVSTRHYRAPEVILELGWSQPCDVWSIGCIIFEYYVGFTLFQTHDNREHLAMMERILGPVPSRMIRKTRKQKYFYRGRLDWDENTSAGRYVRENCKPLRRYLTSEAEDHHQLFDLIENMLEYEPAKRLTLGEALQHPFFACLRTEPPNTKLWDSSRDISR
Cannabinoid receptor 1, sequence (P21554 whole entry, the tested form may be a part): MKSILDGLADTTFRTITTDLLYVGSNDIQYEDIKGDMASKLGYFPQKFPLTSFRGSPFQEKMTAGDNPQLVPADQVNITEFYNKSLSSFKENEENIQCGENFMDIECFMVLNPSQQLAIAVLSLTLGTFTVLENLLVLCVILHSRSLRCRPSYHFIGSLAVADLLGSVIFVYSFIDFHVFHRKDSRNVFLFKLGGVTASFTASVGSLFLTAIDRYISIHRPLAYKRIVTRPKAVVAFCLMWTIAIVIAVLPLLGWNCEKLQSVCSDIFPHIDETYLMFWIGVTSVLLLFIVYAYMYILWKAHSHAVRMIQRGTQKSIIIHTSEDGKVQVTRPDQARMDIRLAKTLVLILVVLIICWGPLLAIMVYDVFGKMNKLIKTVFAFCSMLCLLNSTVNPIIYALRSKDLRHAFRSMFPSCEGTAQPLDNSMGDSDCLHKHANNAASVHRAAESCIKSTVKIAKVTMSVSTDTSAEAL
Dual specificity protein kinase CLK3, sequence (O35492 whole entry, the tested form may be a part): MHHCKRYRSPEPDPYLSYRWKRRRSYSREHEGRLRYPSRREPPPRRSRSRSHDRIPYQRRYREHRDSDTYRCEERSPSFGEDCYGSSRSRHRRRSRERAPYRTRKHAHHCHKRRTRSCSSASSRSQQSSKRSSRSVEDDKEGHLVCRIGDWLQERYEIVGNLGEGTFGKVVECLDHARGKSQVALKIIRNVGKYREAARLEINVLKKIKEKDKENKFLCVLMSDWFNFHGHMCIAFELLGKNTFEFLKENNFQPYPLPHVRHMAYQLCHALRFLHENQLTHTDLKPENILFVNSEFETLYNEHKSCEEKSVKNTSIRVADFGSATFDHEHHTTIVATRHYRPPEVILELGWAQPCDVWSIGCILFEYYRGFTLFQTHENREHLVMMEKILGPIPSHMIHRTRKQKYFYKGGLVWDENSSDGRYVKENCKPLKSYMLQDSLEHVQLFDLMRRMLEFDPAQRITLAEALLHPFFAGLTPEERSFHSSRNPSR
Dual specificity tyrosine-phosphorylation-regulated kinase 1B, sequence (Q9Y463 whole entry): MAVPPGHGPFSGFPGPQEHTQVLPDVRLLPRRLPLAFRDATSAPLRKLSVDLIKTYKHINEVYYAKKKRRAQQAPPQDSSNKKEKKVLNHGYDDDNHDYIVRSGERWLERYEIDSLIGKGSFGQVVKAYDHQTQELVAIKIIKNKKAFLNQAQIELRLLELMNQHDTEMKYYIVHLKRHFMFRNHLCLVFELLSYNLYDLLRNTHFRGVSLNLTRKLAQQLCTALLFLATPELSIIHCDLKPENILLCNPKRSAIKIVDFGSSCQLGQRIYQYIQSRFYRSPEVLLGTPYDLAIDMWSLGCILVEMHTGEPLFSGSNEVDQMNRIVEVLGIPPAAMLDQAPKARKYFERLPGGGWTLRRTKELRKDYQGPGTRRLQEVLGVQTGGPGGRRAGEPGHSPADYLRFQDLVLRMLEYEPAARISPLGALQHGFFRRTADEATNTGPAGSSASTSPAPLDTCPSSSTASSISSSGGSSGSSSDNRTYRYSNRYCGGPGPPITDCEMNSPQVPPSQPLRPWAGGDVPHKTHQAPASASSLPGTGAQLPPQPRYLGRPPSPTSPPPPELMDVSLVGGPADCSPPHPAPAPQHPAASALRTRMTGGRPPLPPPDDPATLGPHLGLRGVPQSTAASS

Row | SMILES | Activity (Cannabinoid receptor 1) | IC50 [1] | IC50 [2] | IC50 [3] | IC50 (Casein kinase 2) | IC50 [4] | IC50 [5] | IC50 [6] | Activity (U2OS) | deltaCT (HT-22 [7]) | IC50 [8] | Activity [9] | IC50 [10] | EC50 at 24 h [11] | IC50 [12] | IC50 [13] | IC50 at 24 h [11] | Activity (Cannabinoid receptor 1; filed as antagonist) | EC50 (HT-22 [14])
1 | CCSC1=N/C(=C\c2ccc3c(c2)OCO3)C(=O)N1 | -7.5% | 23 nM | 340 nM | 33 nM | 600 nM | 160 nM | 900 nM | 29 nM | 5.5 | 0.57 | 72 nM | Non-Toxic | 32 nM | > 20000 nM | 120 nM | 1400 nM |  |  | 
2 | NC1=N/C(=C\c2ccc3c(c2)OCO3)C(=O)N1 | -2.2% | 37 nM | 320 nM | 35 nM | 930 nM | 240 nM | 2100 nM | 41 nM | 5 | 3.02 | 190 nM |  | 32 nM | > 20000 nM | 180 nM | 950 nM |  |  | 
3 | CNC1=N/C(=C\c2ccc3c(c2)OCO3)C(=O)N1 | -14.7% | 94 nM | 1200 nM | 160 nM | 1800 nM | 480 nM | 6200 nM | 140 nM | 4.9 | 1 | 500 nM | Non-Toxic | 130 nM | > 20000 nM | 530 nM | 1200 nM |  |  | 
4 | C/C(=C1/N=C(Nc2ccccc2)NC1=O)c1ccc2c(c1)OCO2 | -42.1% | 5900 nM |  | 8500 nM |  |  |  | ≥ 10000 nM | 5.8 | 0.38 | > 10000 nM |  | 1600 nM |  | > 10000 nM | > 10000 nM | > 20000 nM |  | 
5 | Cc1ccc(NC2=N/C(=C\c3ccc4c(c3)OCO4)C(=O)N2)cc1C |  | 160 nM | > 10000 nM | 130 nM | > 10000 nM | 1700 nM | > 10000 nM | 280 nM | 6.6 |  | 520 nM |  | 55 nM | > 20000 nM | 2200 nM | > 10000 nM |  | 51.7% | 2700 nM
6 | O=C1NC(Nc2ccc(O)cc2)=N/C1=C\c1ccc2c(c1)OCO2 | -25.5% | 18 nM | 1100 nM | 13 nM | 140 nM | 140 nM | 530 nM | 22 nM | 12 | 7.91 | 24 nM |  | 11 nM | > 20000 nM | 83 nM | 280 nM |  |  | 9000 nM
7 | CN(C1=N/C(=C\c2ccc3c(c2)OCO3)C(=O)N1)c1ccccc1 | -9.1% | 130 nM | 2000 nM | 380 nM | 2100 nM | 1800 nM | 6200 nM | 310 nM | 4.7 |  | 680 nM |  | 320 nM | > 20000 nM | 1200 nM | 2600 nM |  |  | > 20000 nM
8 | CCCNC1=N/C(=C\c2ccc3c(c2)OCO3)C(=O)N1c1ccccc1 | -17.9% | 1200 nM |  | > 10000 nM |  | 7000 nM | > 10000 nM | 2000 nM | 4.7 | -0.05 | > 10000 nM |  | 7200 nM | > 20000 nM | 2500 nM | 9500 nM |  |  | 
9 | CCCNC1=N/C(=C\c2ccc3c(c2)OCO3)C(=O)N1 | -14.8% | 61 nM | 1200 nM | 120 nM | 1400 nM | 650 nM | 4100 nM | 70 nM | 5.1 | 5.11 | 310 nM |  | 100 nM | > 20000 nM | 550 nM | 3000 nM |  |  | 
